“Also recorded” adds a separate entry of the source.
Assays:
[1] = Apparent oil-water partition coefficient, shake-flask method; type: physicochemical; details: n-octanol / phosphate buffer pH 1.2-9.0, 37 °C; Kow = log Co/(Ct−Co)
Experimental: The equilibrium partitioning of C1, C2, C3, C4, DC1, and DC2 between organic lipid and water (Kow) was determined in our study by the traditional shake-flask method (SFM). Briefly, 0.5 mL of each saponin standard working solution (100 µg·mL^−1 in water-saturated n-octanol) was accurately measured into 5 mL centrifuge tubes, and spiked with 0.5 mL of different phosphate buffer solutions (pH: 1.2, 2.0, 3.6, 5.8, 6.8, 7.4, 7.8, and 9.0), respectively. After vortex-mixing for 45 min, the tubes were kept in a temperature-stable horizontal shaking bath (37 °C) for 24 h, and then centrifuged at 13,000 rpm for 10 min. Two hundred microliters of organic supernatant solution was measured, diluted with 800 µL of methanol, and mixed well. Ten microliters of the final solution was injected into the HPLC system (detailed experimental conditions and method validation results were not shown) for determination of the drug concentration in the n-octanol phase. The Kow values of the six saponins were calculated according to the following mathematical expression:(3) Kow=logCo/Ct−Co where Ct is the total concentration of the drug, and Co is the concentration of the drug in n-octanol phase.

[2] = tested on: rat small intestine (duodenum, jejunum, ileum); assay: In situ single-pass intestinal perfusion (SPIP), saponins administrated in MDQ-TS form; type: in vivo
Experimental: (§1) MDQ-TS perfusion samples at low, middle, and high concentration levels of 1.25, 2.5, and 5.0 mg·mL^−1 were prepared by separately dissolving MDQ-TS in the minimum amount of DMSO and diluted with K-R buffer solution. The amount of DMSO was 0.5% in the final perfusion solutions. C1, C2, C3, C4, DC1, and DC2 perfusion samples with the concentration equivalent to the amount contained in 2.5 mg·mL^−1 of MDQ-TS were individually prepared in the same way. Verapamil, amantadine and EDTA were directly dissolved in the MDQ-TS perfusate with terminal concentrations of 200 μmol·L^−1, 2.5 mmol·L^−1, and 2.5 mmol·L^−1, accordingly, and used for investigating the mechanisms involved for absorption.
(§2) In situ single-pass intestinal perfusion (SPIP) studies were performed using an experimental design adapted from the literature with some modifications. Briefly, male Sprague-Dawley rats weighing 180–220 g were acclimatized for at least one week before the experiment, and fasted for 18 h with free access to water before the perfusion experiment. Rats were anesthetized with an intraperitoneal injection of urethane (30 mg·kg^−1 body weight), and kept on a homeothermic blanket to maintain normal body temperature. The abdomen was opened with a midline longitudinal incision, and three segments of rat intestine (duodenum, jejunum, and ileum) of approximately 10 cm each were carefully cannulated on two ends with plastic tubing. Initially, the perfusion solution free of drug (37 °C) was pumped by peristaltic pump (BT100-1F, Longer Pump Co., Baoding, China) through the cannulated segments at a flow rate of 1 mL/min for approximately 30 min in order to clean out any residual debris. Secondly, the perfusion solution containing a known concentration of substance (C1, C2, C3, C4, DC1, DC2, and MDQ-TS) was perfused at 37 °C through the intestinal lumen at a constant flow rate of 0.2 mL/min. The first 20 min of period corresponds to steady state, i.e., when the substance is in equilibrium with the intestinal membrane. After steady state, samples were collected from distal portion of duodenum, jejunum and ileum at 10 min intervals (0–10, 10–20, 20–30, 30–40, 40–50, 50–60 min) in pre-weighted vials. Samples were immediately frozen at −20 °C until analysis by validated UPLC. During the experiment, care was taken to avoid disturbance of the circulatory system and the exposed segment was covered with a piece of sterilized gauze to keep it warm and moist by frequent application of warm (37 °C) saline. The intestinum tenue maintained its viability and intact state without disrupting the blood supply throughout the experimental period. Finally, animals were sacrificed after depth anesthesia by intraperitoneal injection of urethane, according to protocols for euthanasia in experimental animals. After death, the intestinal segment was removed for measurements of length and inside diameter.
(§3) The net water flux in the in situ perfusion studies (water absorption and efflux in the intestinal segment) was determined by gravimetric method. The effective absorption rate constant (Ka) and effective apparent permeability (Papp) of compounds in the intestinal segments were calculated according to the following mathematical expression:(1) Ka=(1−CoutQout/CinQin)Q/V (2) Papp=−Qln(CoutQout/CinQin)/2πrl where Cin and Cout are the concentration of test drug in the effluent perfusate through the inlet and outlet tube (μg·mL^−1), respectively. Qin and Qout represent the inlet and outlet volume of effluent perfusate (mL), respectively. Q is the volume flow rate of perfusion (mL·h^−1). V is the volume of the intestinal segment concerned (mL). 2πrl is the area of the mass transfer surface of intestinal segment concerned (cm^2).

[3] = tested on: rat duodenum; assay: SPIP of MDQ-TS with or without verapamil (P-gp inhibitor); type: in vivo; details: MDQ-TS 2.5 mg/mL, verapamil 200 μmol·L^−1
Experimental: as §1, §2
as §3, with “(cm^2). […]” for “(cm^2).”

[4] = tested on: rat small intestine (duodenum, jejunum, ileum); assay: In situ single-pass intestinal perfusion (SPIP), saponins administrated in monomer forms; type: in vivo; parameters: key to Papp / Ka: -: no absorption; details: monomer form; for Ka / Papp: symbol
Experimental: as §1, §2, §3

[5] = tested on: rat duodenum; assay: SPIP of MDQ-TS with or without EDTA (tight junction modulator); type: in vivo; details: MDQ-TS 2.5 mg/mL, EDTA 2.5 mmol·L^−1
Experimental: as §1, §2
as §3, with “(cm^2). […]” for “(cm^2).”

[6] = MDQ-TS form 1.25 mg·mL^−1, duodenum, n = 5
[7] = MDQ-TS form 1.25 mg·mL^−1, ileum, n = 5
[8] = MDQ-TS form 1.25 mg·mL^−1, jejunum, n = 5
[9] = MDQ-TS form 2.5 mg·mL^−1, duodenum, n = 5
[10] = MDQ-TS form 2.5 mg·mL^−1, ileum, n = 5
[11] = MDQ-TS form 2.5 mg·mL^−1, jejunum, n = 5
[12] = MDQ-TS form 5.0 mg·mL^−1, duodenum, n = 5
[13] = MDQ-TS form 5.0 mg·mL^−1, ileum, n = 5
[14] = MDQ-TS form 5.0 mg·mL^−1, jejunum, n = 5

Structure (SMILES): C[C@@H]1O[C@@H](O[C@H]2[C@H](O[C@H]3[C@H](O[C@H]4CC[C@]5(C)[C@H]6CC=C7[C@H]8[C@](C(=O)O)(CC[C@H](C)[C@@]8(C)O)CC[C@@]7(C)[C@]6(C)CC[C@H]5C4(C)C)OC[C@@H](O)[C@@H]3O)O[C@H](CO)[C@@H](O)[C@@H]2O)[C@H](O)[C@H](O)[C@H]1O [C4, ilexsaponin B2]
- apparent oil-water partition coefficient (Kow) [1]: −1 to 2
- Ka [2, 6]: 1.04 ± 0.31 ×10^−2 min^−1
- Papp [2, 6]: 0.20 ± 0.09 ×10^−2 cm·min^−1
- Ka [2, 7]: 0.83 ± 0.28 ×10^−2 min^−1
- Papp [2, 7]: 0.14 ± 0.04 ×10^−2 cm·min^−1
- Ka [2, 8]: 0.84 ± 0.47 ×10^−2 min^−1
- Papp [2, 8]: 0.14 ± 0.05 ×10^−2 cm·min^−1
- Ka [2, 9]: 1.94 ± 0.50 ×10^−2 min^−1
- Papp [2, 9]: 0.42 ± 0.05 ×10^−2 cm·min^−1
- Ka [2, 10]: 2.53 ± 0.29 ×10^−2 min^−1
- Papp [2, 10]: 0.40 ± 0.03 ×10^−2 cm·min^−1
- Ka [2, 11]: 3.19 ± 0.56 ×10^−2 min^−1
- Papp [2, 11]: 0.49 ± 0.03 ×10^−2 cm·min^−1
- Ka [2, 12]: 1.87 ± 0.86 ×10^−2 min^−1
- Papp [2, 12]: 0.40 ± 0.22 ×10^−2 cm·min^−1
- Ka [2, 13]: 1.52 ± 0.92 ×10^−2 min^−1
- Papp [2, 13]: 0.26 ± 0.15 ×10^−2 cm·min^−1
- Ka [2, 14]: 1.92 ± 0.61 ×10^−2 min^−1
- Papp [2, 14]: 0.45 ± 0.18 ×10^−2 cm·min^−1
- Papp ([2]; administrated in MDQ-TS form, summary bound (except DC2 in 1.25 mg·mL^−1 MDQ-TS group)): > 0.0012 cm/min
- Ka increase in comparison with non-Verapamil added group [3]: about 1.5 fold
- Ka ([4]; duodenum): -
- Papp ([4]; duodenum): -
- Ka ([4]; ileum): -
- Papp ([4]; ileum): -
- Ka ([4]; jejunum): -
- Papp ([4]; jejunum): -
- intestinal absorption of monomers ([4]; small intestine, result in words): could not be absorbed by small intestine at all; also recorded: no absorption; also recorded: could not be absorbed by the gastrointestinal tract at all
- Ka increase in comparison with non-EDTA added group [5]: ~1.5 fold
- Papp increase in comparison with non-EDTA added group [5]: ~1.5 fold

From article PMC6150237, “Study of Absorption Characteristics of the Total Saponins from Radix Ilicis Pubescentis in an In Situ Single-Pass Intestinal Perfusion (SPIP) Rat Model by Using Ultra Performance Liquid Chromatography (UPLC)” (Molecules : A Journal of Synthetic Chemistry and Natural …, 2017)
